Measured values: ChEMBL document CHEMBL1909046, “DrugMatrix in vitro pharmacology data”

Key:
Substance-K receptor = biological target: T1, Substance-K receptor (Homo sapiens, UniProt P21452); type: cell membranes, CHO, Membrane; also: in other assays of this panel Not Active means under 50% inhibition at 10 µM
T1 sequence (P21452 whole entry): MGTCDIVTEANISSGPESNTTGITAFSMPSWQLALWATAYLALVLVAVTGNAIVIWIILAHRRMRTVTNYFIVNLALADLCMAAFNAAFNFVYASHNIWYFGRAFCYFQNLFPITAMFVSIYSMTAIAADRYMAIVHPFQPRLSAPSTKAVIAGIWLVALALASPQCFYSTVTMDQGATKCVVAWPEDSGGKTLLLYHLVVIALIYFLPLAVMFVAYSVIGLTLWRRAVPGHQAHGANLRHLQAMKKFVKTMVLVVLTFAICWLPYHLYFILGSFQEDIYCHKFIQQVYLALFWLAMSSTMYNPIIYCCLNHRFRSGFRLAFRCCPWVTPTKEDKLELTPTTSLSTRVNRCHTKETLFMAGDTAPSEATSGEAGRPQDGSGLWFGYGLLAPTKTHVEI

[1] = biological target: T2, Type-2 angiotensin II receptor (Homo sapiens, UniProt P50052); type: cell-based; details: cho-k1; also: in other assays of this panel Not Active means under 50% inhibition at 10 µM
T2 sequence (P50052 whole entry): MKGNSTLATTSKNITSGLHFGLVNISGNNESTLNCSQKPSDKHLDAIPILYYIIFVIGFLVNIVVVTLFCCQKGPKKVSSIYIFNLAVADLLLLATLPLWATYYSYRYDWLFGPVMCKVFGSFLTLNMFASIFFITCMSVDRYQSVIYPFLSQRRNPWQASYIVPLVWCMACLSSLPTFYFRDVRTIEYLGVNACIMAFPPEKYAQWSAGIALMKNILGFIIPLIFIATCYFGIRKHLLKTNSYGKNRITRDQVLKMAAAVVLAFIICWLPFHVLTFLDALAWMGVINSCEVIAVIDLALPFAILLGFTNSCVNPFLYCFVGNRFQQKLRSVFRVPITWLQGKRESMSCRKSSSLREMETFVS

[2] = DRUGMATRIX: ATPase, Na+/K+ enzyme inhibition (substrate: ATP); type: tissue-based, Sus scrofa, Heart; details: Not Active = under 50% inhibition at 10 µM
[3] = biological target: T3, 3-hydroxy-3-methylglutaryl-coenzyme A reductase (Homo sapiens, UniProt P04035); design: species or system Escherichia coli;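 also: enzyme inhibition assay of HMG-CoA reductase using radiolabeled [14C]HMG-CoA as substrate; in other assays of this panel Not Active means under 50% inhibition at 10 µM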
T3 sequence (P04035 whole entry): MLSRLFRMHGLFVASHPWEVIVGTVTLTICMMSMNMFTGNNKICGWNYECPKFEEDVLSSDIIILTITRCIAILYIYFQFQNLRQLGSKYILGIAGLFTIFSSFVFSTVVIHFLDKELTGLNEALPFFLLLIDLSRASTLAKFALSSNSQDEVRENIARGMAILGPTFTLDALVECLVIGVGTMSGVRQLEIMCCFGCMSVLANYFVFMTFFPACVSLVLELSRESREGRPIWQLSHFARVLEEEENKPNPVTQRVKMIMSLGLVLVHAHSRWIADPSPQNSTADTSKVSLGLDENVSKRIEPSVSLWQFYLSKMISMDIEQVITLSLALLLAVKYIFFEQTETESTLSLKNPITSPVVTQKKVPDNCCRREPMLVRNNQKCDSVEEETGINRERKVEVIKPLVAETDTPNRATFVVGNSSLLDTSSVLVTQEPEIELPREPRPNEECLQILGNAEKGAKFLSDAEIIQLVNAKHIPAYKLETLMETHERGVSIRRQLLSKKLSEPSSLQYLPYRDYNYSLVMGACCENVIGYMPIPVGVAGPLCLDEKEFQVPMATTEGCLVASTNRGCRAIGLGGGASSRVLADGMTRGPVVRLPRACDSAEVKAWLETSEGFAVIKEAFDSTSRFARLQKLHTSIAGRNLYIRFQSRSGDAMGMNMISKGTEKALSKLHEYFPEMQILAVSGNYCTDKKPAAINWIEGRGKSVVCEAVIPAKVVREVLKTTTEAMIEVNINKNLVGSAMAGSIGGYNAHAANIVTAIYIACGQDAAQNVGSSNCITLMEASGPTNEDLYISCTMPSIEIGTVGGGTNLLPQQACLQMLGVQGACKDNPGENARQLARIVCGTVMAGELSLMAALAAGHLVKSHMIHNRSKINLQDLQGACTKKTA

Mu-type opioid receptor = Mu-type opioid receptor (Homo sapiens, UniProt P35372); test: DRUGMATRIX: Opiate mu (OP3, MOP) radioligand binding (ligand: [3H] Diprenorphine); type: cell membranes, CHO-K1, Membrane; details: cho-k1; Not Active = under 50% inhibition at 10 µM
Chain of Mu-type opioid receptor (P35372 whole entry): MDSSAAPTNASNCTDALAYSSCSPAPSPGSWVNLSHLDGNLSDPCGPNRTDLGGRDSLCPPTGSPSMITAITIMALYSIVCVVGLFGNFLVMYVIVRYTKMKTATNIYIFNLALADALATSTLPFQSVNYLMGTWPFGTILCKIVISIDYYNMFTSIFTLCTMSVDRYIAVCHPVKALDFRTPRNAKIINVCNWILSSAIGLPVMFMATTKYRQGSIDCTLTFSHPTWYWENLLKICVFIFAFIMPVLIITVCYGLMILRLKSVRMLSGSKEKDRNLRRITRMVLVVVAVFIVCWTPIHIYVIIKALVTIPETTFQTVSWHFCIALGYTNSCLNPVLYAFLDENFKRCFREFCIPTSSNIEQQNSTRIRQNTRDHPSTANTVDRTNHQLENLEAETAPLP

D(4) dopamine receptor = biological target: T4, D(4) dopamine receptor (Homo sapiens, UniProt P21917); test: DRUGMATRIX: Dopamine D4.2 radioligand binding (ligand: [3H] Spiperone); type: cell membranes, CHO-K1, Membrane; details: cho-k1; Not Active = under 50% inhibition at 10 µM
T4 sequence (P21917 whole entry): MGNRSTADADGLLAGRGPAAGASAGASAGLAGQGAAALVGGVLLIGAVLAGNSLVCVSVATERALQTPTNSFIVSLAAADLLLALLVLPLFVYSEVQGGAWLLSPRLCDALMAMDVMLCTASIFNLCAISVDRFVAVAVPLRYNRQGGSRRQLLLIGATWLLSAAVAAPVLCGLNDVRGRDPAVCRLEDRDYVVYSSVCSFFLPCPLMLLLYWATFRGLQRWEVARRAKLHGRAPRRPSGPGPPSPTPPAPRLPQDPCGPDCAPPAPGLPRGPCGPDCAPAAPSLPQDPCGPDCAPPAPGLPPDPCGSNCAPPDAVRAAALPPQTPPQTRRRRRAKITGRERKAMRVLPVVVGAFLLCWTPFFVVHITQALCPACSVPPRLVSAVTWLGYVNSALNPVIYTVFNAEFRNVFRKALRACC

Cytochrome P450 2C19 = Cytochrome P450 2C19 (Homo sapiens, UniProt P33261); details: bti-tn-5b1-4; also: in other assays of this panel Not Active means under 50% inhibition at 10 µM
Chain of Cytochrome P450 2C19 (P33261 whole entry): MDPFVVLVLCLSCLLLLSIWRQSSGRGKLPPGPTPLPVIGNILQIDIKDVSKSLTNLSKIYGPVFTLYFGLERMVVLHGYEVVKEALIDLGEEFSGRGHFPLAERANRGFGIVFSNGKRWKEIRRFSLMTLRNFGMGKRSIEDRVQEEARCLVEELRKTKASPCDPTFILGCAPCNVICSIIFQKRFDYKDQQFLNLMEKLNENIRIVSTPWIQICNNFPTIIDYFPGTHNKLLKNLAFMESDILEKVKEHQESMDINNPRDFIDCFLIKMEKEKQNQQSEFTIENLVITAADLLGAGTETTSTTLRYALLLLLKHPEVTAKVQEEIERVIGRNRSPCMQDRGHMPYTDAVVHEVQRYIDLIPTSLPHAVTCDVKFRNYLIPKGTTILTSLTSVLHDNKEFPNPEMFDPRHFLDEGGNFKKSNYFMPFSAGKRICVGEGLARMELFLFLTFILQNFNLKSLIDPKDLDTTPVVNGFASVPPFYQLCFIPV

[4] = DRUGMATRIX: Phosphodiesterase PDE3 enzyme inhibition (substrate: [3H]cAMP + cAMP); type: tissue-based, Homo sapiens; details: platelet; Not Active = under 50% inhibition at 10 µM

| Compound | IC50 (Substance-K receptor; cho) | IC50 [1] | IC50 [2] | Ki [2] | IC50 [3] | IC50 (Mu-type opioid receptor) | IC50 (D(4) dopamine receptor) | IC50 (Cytochrome P450 2C19) | Ki (Cytochrome P450 2C19) | IC50 [4] | Ki [4] | IC50 ([3]; read-out: IC50) [nM] | IC50 (Substance-K receptor; read-out: IC50) [nM] | Ki (Substance-K receptor; read-out: Ki) [nM] |
| --- | --- | --- | --- | --- | --- | --- | --- | --- | --- | --- | --- | --- | --- | --- |
| CCC1(c2ccccc2)C(=O)NCNC1=O [PRIMIDONE] | Not Active | Not Active | Not Active | Not Active | Not Active | Not Active | Not Active | Not Active | Not Active | Not Active | Not Active | – | – | – |
| CC(C)(Oc1ccc(CCNC(=O)c2ccc(Cl)cc2)cc1)C(=O)O [BEZAFIBRATE] | Not Active | Not Active | Not Active | Not Active | Not Active | Not Active | Not Active | Not Active | Not Active | Not Active | Not Active | – | – | – |
| CC=CC(=O)N(CC)c1ccccc1C | Not Active | Not Active | Not Active | Not Active | Not Active | Not Active | Not Active | Not Active | Not Active | Not Active | Not Active | – | – | – |
| CC(C)n1c(/C=C/C(O)CC(O)CC(=O)O)c(-c2ccc(F)cc2)c2ccccc21 (stereo not given) [FLUVASTATIN] | Not Active | Not Active | Not Active | Not Active | – | Not Active | Not Active | Not Active | Not Active | Not Active | Not Active | 0.353 | – | – |
| CC(=O)OCC(=O)[C@@]1(OC(C)=O)[C@@H](C)C[C@H]2[C@@H]3C[C@H](F)C4=CC(=O)C=C[C@]4(C)[C@@]3(F)[C@@H](O)C[C@@]21C [DIFLORASONE DIACETATE] | Not Active | Not Active | Not Active | Not Active | Not Active | Not Active | Not Active | Not Active | Not Active | Not Active | Not Active | – | – | – |
| CC1(C)S[C@@H]2[C@H](NC(=O)[C@H](N)c3ccc(O)cc3)C(=O)N2[C@H]1C(=O)O [AMOXICILLIN] | Not Active | Not Active | Not Active | Not Active | Not Active | Not Active | Not Active | Not Active | Not Active | Not Active | Not Active | – | – | – |
| C[C@]12CCC(=O)C=C1CC[C@@H]1[C@@H]2C(=O)C[C@@]2(C)[C@H]1CC[C@]2(O)C(=O)CO [CORTISONE] | Not Active | Not Active | Not Active | Not Active | Not Active | Not Active | Not Active | Not Active | Not Active | Not Active | Not Active | – | – | – |
| CC[C@@]1(O)C(=O)OCc2c1cc1n(c2=O)Cc2cc3ccccc3nc2-1 [CAMPTOTHECIN] | Not Active | Not Active | Not Active | Not Active | Not Active | Not Active | Not Active | Not Active | Not Active | Not Active | Not Active | – | – | – |
| COc1ccc2c(c1)c(CC(=O)OCC(=O)O)c(C)n2C(=O)c1ccc(Cl)cc1 [ACEMETACIN] | Not Active | Not Active | Not Active | Not Active | Not Active | Not Active | Not Active | Not Active | Not Active | Not Active | Not Active | – | – | – |
| N=C(N)NCCCCNC(=N)N.O=S(=O)(O)O [ARCAINE SULFATE] | Not Active | Not Active | Not Active | Not Active | Not Active | Not Active | Not Active | Not Active | Not Active | Not Active | Not Active | – | – | – |
| CCOC(=O)c1ccc(N)cc1 [BENZOCAINE] | Not Active | Not Active | Not Active | Not Active | Not Active | Not Active | Not Active | Not Active | Not Active | Not Active | Not Active | – | – | – |
| CC1=Nc2ccc(Cl)cc2S(=O)(=O)N1 [DIAZOXIDE] | Not Active | Not Active | Not Active | Not Active | Not Active | Not Active | Not Active | Not Active | Not Active | Not Active | Not Active | – | – | – |
| COC(=O)[C@H](c1ccccc1Cl)N1CCc2sccc2C1 [CLOPIDOGREL] | Not Active | Not Active | Not Active | Not Active | Not Active | Not Active | Not Active | Not Active | Not Active | Not Active | Not Active | – | – | – |
| O=c1cc(-c2ccccc2)oc2c1ccc1ccccc12 [ALPHA-NAPHTHOFLAVONE] | – | Not Active | Not Active | Not Active | Not Active | Not Active | Not Active | Not Active | Not Active | Not Active | Not Active | – | 5850 | 1950 |
